How the values were obtained:
[1] = target: T1, RSV pre-fusion F protein of SEQ ID NO: 10 (Human respiratory syncytial virus A, UniProt P03420, D486N/DEL108-136/I379V/M447V/N67I/P102A/S215P); type: physicochemical; details: for trimer % after slow freeze with compound vs without: all formulation buffers (AP1, FB12, formulation 1 and 2); for aggregation after slow freeze: formulation 5b (pH 8.3) and 5a (pH 7.0)
T1 construct: made in house
Procedure: The RSV pre-fusion F protein of SEQ ID NO: 10 was diluted to 0.3 mg/ml in phosphate buffer (Formulation 1) and 0.75 ml was filled in glass injection vials with rubber stopper and sealed with aluminum caps. Additionally, protein was diluted in the formulation buffers with inhibitor in a 1:3 trimer:compound ratio. One inhibitor binds one trimer so with a 1:3 ratio there is an excess of inhibitor. […] In 24 hours, samples were cooled down from RT to −70° C. Samples were thawed to RT and analyzed by analytical Size Exclusion Chromatography (SEC) to measure loss of RSV F trimer.
0.75 ml of each formulation was filled in glass injection vials with rubber stopper and sealed with aluminum caps. Additionally, protein was diluted in the formulation buffers and inhibitor was added in a 1:1, 1:3, 1:9, 1:27 and 1:50 trimer: compound ratio. Final compound concentrations were 1.7×10^−6 M, 5.2×10^−6 M, 1.6×10^−5M, 4.6×10^−5, and 8.6×10^−5 M, respectively. Vials were slowly frozen to −70° C. in 24 hours. Samples were subsequently thawed to RT and analyzed by analytical Size Exclusion Chromatography (SEC) to measure loss of RSV F trimer compared the sample that was kept at 4° C.

[2] = target: T2, RSV pre-fusion F (preF) protein of SEQ ID NO: 10 (Human respiratory syncytial virus A, UniProt P03420, D486N/DEL108-136/I379V/M447V/N67I/P102A/S215P); type: physicochemical; details: with compound 1:3 trimer:compound in sample and UF/DF buffer; formulation 2 without PS20; two weeks after UF/DF
T2 construct: made in house
Procedure: The UF/DF was performed with and without compound. […] A kDa filter in the UF/DF (Cogent μscale TFF system (Merck Millipore, Burlington, MA)) was used and a diavolume of 350 ml UF/DF buffer was used.
After the UF/DF the hydrodynamic diameters were measured by Dynamic Light Scattering (DLS) UNcle from vendor Unchained Labs (Pleasanton, CA, US) two weeks after the UF/DF.

HIV Env ConB SOSIP = target: T3, HIV Env ConB SOSIP (Human immunodeficiency virus type 1 group M subtype B, UniProt P04578, A336T/A346V/A501C/A612T/D137T/D187N/D632E/D99N/DEL145-146/DEL310-311/DEL356-356/DEL401-405/DUP460-460/E409T/E464T/E509R/E620D/E630Q/F175L/F396S/G167D/G321D/H625N/H643Y/I148K/I181V/I182V/I320G/I360V/I467T/I559P/I580V/INS134N/INS317Y/INS395N/INS508RR/K130N/K135N/K192R/K322I/K362N/K429E/K510R/L518M/M147E/M326I/M535I/N230D/N325D/N624D/N636D/Q621E/R306S/R308H/S128T/S162T/S347K/S387T/S398G/S411N/S440R/S461N/S465T/S640G/S644T/T140N/T188N/T194I/T232K/T290E/T31A/T373M/T605C/T626M/V275E/V318A/V87E); assay: Storage stability of ConB-SOSIP Env, antigenicity by AlphaLISA (bNAbs / non-bNAbs); type: binding, HIV-1; details: 1 week at 4° C., 50-fold excess
T3 construct: made in house; host or cells: HEK293F
Procedure: HIV env trimer was incubated in Citrate buffer (20 mM Citrate. 75 mM NaCl 5% Sucrose, 0.03% Tween-80 pH 6.0) at 0.8 mg/ml for 1 week at 4° C. with or without inhibitor. Entry inhibitor XVII was added in a 50-fold excess to the purified Env ConB SOSIP. As the inhibitor was dissolved in DMSO, the control sample with only Env contained the same concentration of DMSO (1.95% v/v) as the Env with the inhibitor. The quality of HIV Env can be evaluated with broadly neutralizing antibodies (bNAbs) that bind the closed, native pre-fusion conformation of Env, versus non-broadly neutralizing antibodies (non-bNAbs) which recognize non natively folded Envs (Rutten et. al., Cell Reports 18). […] Preferential binding to bNAbs was higher and binding to all five tested non-bNAbs, except for 447-52D, was decreased for the composition that contained the inhibitor.

HIV-1 ConB-SOSIP Env = HIV-1 ConB-SOSIP Env (Human immunodeficiency virus type 1 group M subtype B, UniProt P04578, A336T/A346V/A501C/A612T/D137T/D187N/D632E/D99N/DEL145-146/DEL310-311/DEL356-356/DEL401-405/DUP460-460/E409T/E464T/E509R/E620D/E630Q/F175L/F396S/G167D/G321D/H625N/H643Y/I148K/I181V/I182V/I320G/I360V/I467T/I559P/I580V/INS134N/INS317Y/INS395N/INS508RR/K130N/K135N/K192R/K322I/K362N/K429E/K510R/L518M/M147E/M326I/M535I/N230D/N325D/N624D/N636D/Q621E/R306S/R308H/S128T/S162T/S347K/S387T/S398G/S411N/S440R/S461N/S465T/S640G/S644T/T140N/T188N/T194I/T232K/T290E/T31A/T373M/T605C/T626M/V275E/V318A/V87E); assay: Thermostability of HIV-1 ConB-SOSIP Env by nanoDSF; type: physicochemical; details: 50-fold molar excess of inhibitor; Env 0.8 mg/ml; DMSO 1.95% v/v

CS(=O)(=O)CCCn1c(Cn2c(=O)n(C3CC3)c3ccncc32)nc2cc(Cl)ccc21 [Compound II, 3-[[5-chloro-1-(3-methylsulfonylpropyl)benzimidazol-2-yl]methyl]-1-cyclopropyl-imidazo[4,5-c]pyridin-2-one]
trimer % after slow freeze with compound vs without [1]: higher trimer % | aggregation after slow freeze [1]: no aggregations were observed | trimer signal lost after slow freeze/thaw (analytical SEC) ([1]; phosphate buffer (Formulation 1), preF 0.3 mg/ml, 1:3 trimer:compound, RT to −70° C. in 24 hours): 2.4+/−1.9%

CS(=O)(=O)CCCn1c(Cn2c(=O)n(CC(F)(F)F)c3ccncc32)cc2cc(Cl)ccc21 [Compound IV, 3-[[5-chloro-1-(3-methylsulfonylpropyl)indol-2-yl]methyl]-1-(2,2,2-trifluoroethyl)imidazo[4,5-c]pyridin-2-one]
hydrodynamic diameter (DLS) after UF/DF [2]: 8.65 nm | trimer % after slow freeze with compound vs without [1]: higher trimer % | aggregation after slow freeze [1]: no aggregations were observed

COc1ccnc2[nH]cc(C(=O)C(=O)N3CCN(C(=O)c4ccccc4)C[C@H]3C)c12 [XVII, 1-[(2R)-4-benzoyl-2-methyl-piperazin-1-yl]-2-(4-methoxy-1H-pyrrolo[2,3-b]pyridin-3-yl)ethane-1,2-dione]
binding to bNAbs vs Env without inhibitor (HIV Env ConB SOSIP): higher | binding to five tested non-bNAbs, except for 447-52D, vs Env without inhibitor (HIV Env ConB SOSIP): decreased | quality of HIV Env by antigenicity (AlphaLISA) vs Env without inhibitor (HIV Env ConB SOSIP; Citrate buffer pH 6.0): superior | increase of melting temperature of Env (nanoDSF) (HIV-1 ConB-SOSIP Env): ~5 °C

From US20230310573A1, “Stabilized Vaccine Compositions” (priority 2020, published 2023)
